Results reported in US20130310431A1, “USES FOR SUBSTITUTED 2-AMINO-THIAZOLONES IN TREATING ALZHEIMER'S DISEASE” (Amgen Inc, priority 2010, published 2013).
Entries after “also recorded” stand apart in the source; their conditions may differ.

How the values were obtained:
[1] = Concentration vs. time profiles in plasma, CSF, brain regions and fat after intravenous infusion; type: in vivo, cynomolgus monkeys; conditions: cynomolgus monkey, intravenous infusion for 1 hour
Method: The concentration of AMG221 in the biological samples described above was measured as a function of time.
The concentration of (B) in the biological samples described above was measured as a function of time.

aged Wistar rats = assay: Novel object recognition study (reversal of age-related behavioral deficits); type: in vivo; conditions: aged (20 months) Wistar rats, 14 day treatment, 3, 10, 30 mg/kg; compared to galantamine; FIG. 1; listed as AMG221
Method: Thus, over a 14 day treatment period, young and aged (20 months) Wistar rats were administered formulations as follows: […]
1. Young: pharmaceutical vehicle (no active agent);
2. Young: galantamine, an acetylcholinesterase inhibitor as a positive control;

SMILES | distribution within central nervous system versus fat [1] | time concentrations exceeded the cynomolgus Ki for 11β-HSD1 in CSF ([1]; CSF) | time concentrations exceeded the cynomolgus Ki for 11β-HSD1 in unbound plasma [1] | distribution into fat ([1]; relative to AMG221) | improvement in novel object recognition (aged Wistar rats)
CC(C)[C@]1(C)SC(N[C@H]2C[C@H]3C[C@@H]2C[C@@H]3O)=NC1=O [Compound (B)] | distributed uniformly and more rapidly within the central nervous system than in fat | five | eight | distributed poorly into fat | 
CC(C)[C@]1(C)SC(N[C@H]2C[C@@H]3CC[C@H]2C3)=NC1=O [Compound (A)] | distributed uniformly and more rapidly within the central nervous system than in fat |  | three |  | reverses age-related behavioral deficits; also recorded: superior improvement in novel object recognition
